Laboratory results as given in patent US8258138B2, “Potassium channel blockers” (Xention Limited, priority 2008, dated 2012).

Experiments:
human Kv1.3 = target: T1, human Kv1.3 (Homo sapiens, UniProt P22001); test: Kv1.3 Autopatch electrophysiology (whole cell patch-clamp, inhibition of charge movement); type: cell-based; conditions: compound at 1 μM; cells stably transfected with human Kv1.3; room temperature; total charge during step to +30 mV relative to control; read-out: hKv1.3 % inh.
T1 construct: expressed in transfected cells; host or cells: stably transfected cells grown in medium for CHO cells
T1 sequence (P22001 whole entry): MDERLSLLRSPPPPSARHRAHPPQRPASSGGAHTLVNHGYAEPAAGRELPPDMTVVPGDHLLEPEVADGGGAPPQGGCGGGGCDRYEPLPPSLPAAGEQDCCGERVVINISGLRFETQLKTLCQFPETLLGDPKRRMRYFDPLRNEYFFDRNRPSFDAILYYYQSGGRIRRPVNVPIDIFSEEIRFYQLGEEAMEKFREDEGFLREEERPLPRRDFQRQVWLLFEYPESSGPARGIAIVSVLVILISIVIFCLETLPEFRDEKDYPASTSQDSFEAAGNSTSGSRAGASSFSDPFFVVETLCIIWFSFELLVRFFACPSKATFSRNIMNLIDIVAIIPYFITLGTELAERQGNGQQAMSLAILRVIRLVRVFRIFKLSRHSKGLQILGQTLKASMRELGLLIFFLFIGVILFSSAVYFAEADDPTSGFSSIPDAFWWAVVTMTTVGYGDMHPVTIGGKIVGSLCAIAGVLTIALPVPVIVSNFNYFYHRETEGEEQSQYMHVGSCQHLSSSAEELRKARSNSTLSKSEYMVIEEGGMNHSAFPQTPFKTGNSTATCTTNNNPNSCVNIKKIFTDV
Procedure, shortened: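 Whole-cell AutoPatch recordings were made at room temperature from cells held at −80 mV, with 500 ms steps to +30 mV every 15 s. The bath contained 10 mM KCl, pH 7.4, and the pipette K-gluconate/EGTA, pH 7.2.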

hKv1.5 = hKv1.5 (Homo sapiens, UniProt P22460); test: Kv1.5 Autopatch electrophysiology (whole cell patch-clamp); type: cell-based; conditions: compound at 1 μM; room temperature (22-24° C.); total charge during step to 0 mV; read-out: hKv1.5 % inh.
Sequence of hKv1.5 (P22460 whole entry): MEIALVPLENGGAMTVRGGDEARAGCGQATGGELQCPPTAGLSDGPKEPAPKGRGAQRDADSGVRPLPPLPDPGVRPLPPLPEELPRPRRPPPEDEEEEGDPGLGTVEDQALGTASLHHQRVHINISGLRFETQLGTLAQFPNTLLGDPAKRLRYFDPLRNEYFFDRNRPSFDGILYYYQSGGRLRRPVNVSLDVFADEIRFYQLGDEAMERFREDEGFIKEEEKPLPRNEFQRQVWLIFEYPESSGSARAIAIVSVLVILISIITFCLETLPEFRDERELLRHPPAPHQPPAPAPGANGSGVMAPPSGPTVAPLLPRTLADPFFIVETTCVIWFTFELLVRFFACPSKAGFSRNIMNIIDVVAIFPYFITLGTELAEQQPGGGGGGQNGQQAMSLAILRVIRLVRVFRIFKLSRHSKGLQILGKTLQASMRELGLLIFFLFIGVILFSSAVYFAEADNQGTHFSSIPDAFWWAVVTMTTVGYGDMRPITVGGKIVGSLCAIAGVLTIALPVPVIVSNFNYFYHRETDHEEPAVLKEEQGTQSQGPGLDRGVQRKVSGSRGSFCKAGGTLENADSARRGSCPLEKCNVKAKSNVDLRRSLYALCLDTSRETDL
Method: Kv1.5 Autopatch Electrophysiology Method
The external bathing solution contained (in mM): 150 NaCl, 10 KCl, […], 3 MgCl2, 1 CaCl2, 10 HEPES, pH 7.4. Patch pipettes were filled with an electrode solution of composition (in mM): 160 KCl, 0.5 MgCl2, 10 HEPES, 1 EGTA, pH 7.4 with KOH.
Compounds were dissolved in DMSO (100%) and made up in the external bather at a concentration of 1 μM. All experiments were conducted at room temperature (22-24° C.).
A cell suspension (10 ml), with a density of 100,000 cells/ml, was aliquoted into a 15 ml centrifuge tube and transferred to an incubator (37° C., 5% CO2) for approximately one hour before use. Following 60 min incubation, a tube was taken and centrifuged at 1000 rpm for 4 mins at room temperature. 9.5 ml supernatant was thence discarded, leaving a cell pellet at the bottom of the tube. The pellet was then resuspended using 100 μl of cold (4° C.), filtered (0.22 μm), 0.2% BSA/bather solution (0.02 g BSA/10 ml bather). The bottom of the tube was manually agitated gently until the solution became cloudy with cells. The 100 μl cell resuspension solution was then stored on the bench at 4° C. (using a Peltier-based temperature control device) until used.
A length of capillary glass (1B150F-4, WPI) was dipped into the cell suspension solution, such that ˜3 cm column of fluid was taken up by capillary action. A Ag/AgCl wire was dropped into the non-dipped end of the capillary also. The outside of the solution-filled end of the capillary was then dried and the capillary was loaded into the AutoPatch™.
Borosilicate glass patch pipettes (from 1.5 mm OD, thin-walled filamented, GC150-TF capillary glass, Harvard) were pulled using a DMZ pipette puller (Zeitz Instruments), and were back-filled using the internal pipette solution, being careful that no bubbles remain at the tip or in the body of the pipette. Patch pipettes typically had resistances of 2.3-3.5 MΩ. Once filled, the pipette tip and a proportion of the shaft (˜15 mm) were dipped into Sigmacote (Sigma). The recording pipette was then loaded into the AutoPatch™ Automated patch-clamping was initiated by the operator, but thereafter AutoPatch.exe continued the experiment providing that pre-set conditions and criteria were satisfied.
Whole cell patch-clamp recordings were made using the AutoPatch™ rig, which incorporated an EPC9 amplifier (HEKA, Germany) under control of Pulse software (v8.54, HEKA, Germany), a motion controller with 2 translators (Newport, UK), valve controller (VF1) and a c-level suction device all at room temperature (22-24° C.). This equipment was completely under the control of AutoPatch.exe and operator intervention was only made when there was a requirement to refill the drug reservoirs or to prevent the loss of a cell due to a technical error. Cells with an Rseries greater than 18 MΩ were discounted from the experiment.
Qualification stages prior to perfusion and drug application ensured that the observed current met the criteria for the experiment. Only those cells with an IK>500 pA were used for experiments. Cells were continuously perfused with external solution at a flow rate of 1.8-2 ml/minute. […] Online analysis of the hKv1.5 current during the application of compounds was performed by the AutoPatch™ software. Voltage-step protocols and analysis of data was performed as described for conventional electrophysiology.
Electrophysiology voltage-step protocols and analysis of data was performed as follows. Data was sampled at 5 kHz, and filtered with a −3 dB bandwidth of 2.5 kHz. Cells were held at a voltage of −80 mV. Currents were evoked to a voltage step for 1000 ms in duration at 0 mV every 5 s. Currents were analysed using Pulsefit software (v8.54, HEKA, Germany), with the total charge measured during the whole of the voltage step. All other plots were produced using Igor Pro (WaveMetrics).

Row | inhibition at 1 µM (human Kv1.3) | inhibition at 1 µM (hKv1.5) | SMILES
1 | 94% | 47% | Cn1nccc1S(=O)(=O)N(Cc1ccccc1)c1ccc(C(=O)N2CCOC(c3ccccc3)C2)cc1 (centres unmarked) [Example 85, 2-Methyl-2H-pyrazole-3-sulfonic acid benzyl-[4-(2-phenyl-morpholine-4-carbonyl)-phenyl]-amide]
2 | 62% | 56% | O=C(c1ccc(N(Cc2ccc(Cl)cc2)S(=O)(=O)c2cccnc2)cc1)N1CCCCC1 [Example 87, Pyridine-3-sulfonic acid (4-chloro-benzyl)-[4-(piperidine-1-carbonyl)-phenyl]-amide]
3 | 76% | 40.8% | CN1CCN(C(=O)c2ccc(N(Cc3ccccc3)S(=O)(=O)c3ccn(C)n3)cc2)CC1c1ccccc1 (centres unmarked) [Example 90, 1-Methyl-1H-pyrazole-3-sulfonic acid benzyl-[4-(4-methyl-3-phenyl-piperazine-1-carbonyl)-phenyl]-amide]
4 | 67% | 43.4% | Cn1cnc(S(=O)(=O)N(Cc2cccc(Cl)c2)c2ccc(C(=O)N3CCCCC3)cc2)c1 [Example 93, 1-Methyl-1H-imidazole-4-sulfonic acid (3-chloro-benzyl)-[4-(piperidine-1-carbonyl)-phenyl]-amide]

The remaining lines, values behind:

Row | SMILES | inhibition at 1 µM (human Kv1.3) | inhibition at 1 µM (hKv1.5)
5 | O=C(c1ccc(N(Cc2ccccc2)S(=O)(=O)c2ccccc2)cc1)N1CCC(O)(Cc2ccccc2)CC1 [Example 59, N-Benzyl-N-[4-(4-benzyl-4-hydroxy-piperidine-1-carbonyl)-phenyl]-benzenesulfonamide] | 87% | 40.1%
6 | Cn1cnc(S(=O)(=O)N(Cc2ccc(Cl)cc2)c2ccc(C(=O)N3CCCC(c4ccccc4)C3)cc2)c1 (centres unmarked) [Example 61, 1-Methyl-1H-imidazole-4-sulfonic acid (4-chloro-benzyl)-[4-(3-phenyl-piperidine-1-carbonyl)-phenyl]-amide] | 89% | 67.5%
7 | Cn1cnc(S(=O)(=O)N(Cc2ccc(Cl)cc2)c2ccc(C(=O)N3CCCC(Oc4ccccc4)C3)cc2)c1 (centres unmarked) [Example 62, 1-Methyl-1H-imidazole-4-sulfonic acid (4-chloro-benzyl)-[4-(3-phenoxy-piperidine-1-carbonyl)-phenyl]-amide] | 64% | 52.4%
8 | Cn1cnc(S(=O)(=O)N(Cc2ccccc2)c2ccc(C(=O)N3CCOC(c4ccccc4)C3)cc2)c1 (centres unmarked) [Example 63, 1-Methyl-1H-imidazole-4-sulfonic acid benzyl-[4-(2-phenyl-morpholine-4-carbonyl)-phenyl]-amide] | 93% | 74.4%
9 | Cn1cnc(S(=O)(=O)N(Cc2ccc(F)cc2)c2ccc(C(=O)N3CCOC(c4ccccc4)C3)cc2)c1 (centres unmarked) [Example 66, 1-Methyl-1H-imidazole-4-sulfonic acid (4-fluoro-benzyl)-[4-(2-phenyl-morpholine-4-carbonyl)-phenyl]-amide] | 55% | 69%
10 | Cn1cnc(S(=O)(=O)N(Cc2ccccc2)c2ccc(C(=O)N3CCOC(c4ccccc4)C3)cc2F)c1 (centres unmarked) [Example 68, 1-Methyl-1H-imidazole-4-sulfonic acid benzyl-[2-fluoro-4-(2-phenyl-morpholine-4-carbonyl)-phenyl]-amide] | 90% | 62.8%
